Measurements published in BindingDB's records for doi:10.1021/acs.jmedchem.6b01892 (University of Regensburg, 2017).

Experiments:
[1] = Competitive binding affinity to human muscarinic acetylcholine receptor M2 expressed in […] cells assessed as W84 pIC50 at 4 nM after 2 hrs by liquid scintillation counting assay
[2] = Competitive binding affinity to human muscarinic acetylcholine receptor M2 expressed in […] cells assessed as W84 pIC50 at 15 nM after 2 hrs by liquid scintillation counting assay
[3] = Competitive binding affinity to human muscarinic acetylcholine receptor M2 expressed in […] cells assessed as W84 pIC50 at 30 nM after 2 hrs by liquid scintillation counting assay
[4] = Competitive binding affinity to human muscarinic acetylcholine receptor M2 expressed in […] cells assessed as W84 pIC50 at 2 nM after 2 hrs by liquid scintillation counting assay
[5] = Competitive binding affinity to human muscarinic acetylcholine receptor M2 expressed in […] cells assessed as W84 pIC50 at 8 nM after 2 hrs by liquid scintillation counting assay
[6] = Competitive binding affinity to human muscarinic acetylcholine receptor M2 expressed in […] cell homogenates assessed as W84 pIC50 at 2 nM after 2 hrs by liquid scintillation counting assay
[7] = Competitive binding affinity to human muscarinic acetylcholine receptor M2 expressed in […] cell homogenates assessed as W84 pIC50 at 1 nM after 2 hrs by liquid scintillation counting assay
[8] = Competitive binding affinity to human muscarinic acetylcholine receptor M2 expressed in […] cell homogenates assessed as W84 pIC50 at 0.4 nM after 2 hrs by liquid scintillation counting assay
[9] = Competitive binding affinity to human muscarinic acetylcholine receptor M2 expressed in […] cell homogenates assessed as W84 pIC50 at 4 nM after 2 hrs by liquid scintillation counting assay

IC50 [1] [nM] | IC50 [2] [nM] | IC50 [3] [nM] | IC50 [4] [nM] | IC50 [5] [nM] | IC50 [6] [nM] | IC50 [7] [nM] | IC50 [8] [nM] | IC50 [9] [nM] | SMILES
282 | 1350 | 2090 | 182 | 631 |  |  |  |  | [3H]CC([3H])C(=O)NCCNC(=O)CCc1cn(CCCCC2CCN(CC(=O)N3c4ccccc4NC(=O)c4ccccc43)CC2)cn1 (centres undefined)
 |  |  |  |  | 10500 | 6610 | 2690 | 18600 | [3H]CC([3H])C(=O)NCc1cc(C(=O)NCCNC(=O)CCc2cn(CCCCC3CCN(CC(=O)N4c5ccccc5NC(=O)c5ccccc54)CC3)cn2)cc(C(=O)NCCNC(=O)CCc2cn(CCCCC3CCN(CC(=O)N4c5ccccc5NC(=O)c5ccccc54)CC3)cn2)c1 (centres undefined)
